Assay results: US20250195513A1, “DEGRADATION OF IRAK4 BY CONJUGATION OF IRAK4 INHIBITORS WITH E3 LIGASE LIGAND AND METHODS OF USE” (BeiGene, Ltd., priority 2022, published 2025)

Columns and labels:
[1] = molecular target: T1, IRAK4 (Homo sapiens, UniProt Q9NWZ3); assay: IRAK4 Degradation Assay with Human Serum (Karpas299, HTRF/TR-FRET); format: cell-based; conditions: Karpas-299 in human serum, 24 hrs treatment; for DC50: read-out: IRAK4 degradtion with human serum assay DC50; for Dmax: read-out: IRAK4 degradtion with human serum assay Dmax (%)
T1 construct: endogenous in cells; host or cells: Karpas299
T1 sequence (Q9NWZ3 1-460): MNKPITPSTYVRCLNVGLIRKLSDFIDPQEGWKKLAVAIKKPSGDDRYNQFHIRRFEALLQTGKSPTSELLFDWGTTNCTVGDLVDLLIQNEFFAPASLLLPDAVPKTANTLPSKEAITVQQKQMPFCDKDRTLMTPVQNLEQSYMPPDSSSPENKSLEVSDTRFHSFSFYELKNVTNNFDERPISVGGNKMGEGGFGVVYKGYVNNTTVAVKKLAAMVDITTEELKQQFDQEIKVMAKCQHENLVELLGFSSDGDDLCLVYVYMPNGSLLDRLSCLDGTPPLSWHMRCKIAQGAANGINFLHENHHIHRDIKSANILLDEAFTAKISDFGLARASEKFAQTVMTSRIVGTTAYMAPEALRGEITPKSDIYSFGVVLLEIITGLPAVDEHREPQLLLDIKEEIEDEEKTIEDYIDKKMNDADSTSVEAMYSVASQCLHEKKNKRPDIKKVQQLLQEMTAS
Method in brief: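 Karpas299 cells in human AB serum (0.2 million/well) treated with serial compound dilutions for 24 h. After lysis, IRAK4 quantified by HTRF (overnight antibody incubation at room temperature, 665/620 nm read). Degradation percentage fitted to four-parameter curve to give DC50.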

[2] = molecular target: T1, IRAK4; assay: IRAK4 Degradation Assay (Karpas299, HTRF/TR-FRET); format: cell-based; conditions: Karpas-299 cells, 24 h treatment; for Dmax: maximum percentage of degradation, read-out: IRAK4 in Karpas-299 (24 h) Dmax (%); for DC50: read-out: IRAK4 in Karpas-299 (24 h) DC50
Method in brief: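 Karpas299 cells at 0.2 million per well were exposed to serially diluted compounds for 24 h or 5 h, then lysed. IRAK4 remaining in lysates was quantified by HTRF (665/620 nm) after overnight antibody incubation at room temperature. Percent degradation was fitted to a four-parameter curve to give IC50 (DC50).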

| Compound | DC50 [1] [nM] | Dmax [1] [%] | Dmax [2] [%] | DC50 [2] [nM] |
| --- | --- | --- | --- | --- |
| CC(C)(O)c1cc2nn([C@H]3CC[C@H](C4CCN(C5CCN(c6cc(F)c([C@H]7CCC(=O)NC7=O)c(F)c6)CC5)CC4)CC3)cc2cc1NC(=O)c1ccc2cc(C#N)cnn12 [Example 409, 3-cyano-N-(2-((1r,4r)-4-(1′-(4-((R)-2,6-dioxopiperidin-3-yl)-3,5-difluorophenyl)-[1,4′-bipiperidin]-4-yl)cyclohexyl)-6-(2-hydroxypropan-2-yl)-2H-indazol-5-yl)pyrrolo[1,2-b]pyridazine-7-carboxamide] | 10 | 96 | 97 | 3.5 |
| COC[C@@H]1CN([C@H]2CC[C@H](n3cc4cc(NC(=O)c5ccc6cc(C#N)cnn56)c(C(C)(C)O)cc4n3)CC2)CCN1C(=O)C1CN(c2cc(F)c(N3CCC(=O)NC3=O)c(F)c2)C1 [Example 410, 3-cyano-N-(2-((1S,4r)-4-((S)-4-(1-(4-(2,4-dioxotetrahydropyrimidin-1(2H)-yl)-3,5-difluorophenyl)azetidine-3-carbonyl)-3-(methoxymethyl)piperazin-1-yl)cyclohexyl)-6-(2-hydroxypropan-2-yl)-2H-indazol-5-yl)pyrrolo[1,2-b]pyridazine-7-carboxamide] | 18 | 91 | 98 | 1.8 |

These reach a lower DC50 [1]. Values come first.

| DC50 [1] [nM] | Dmax [1] [%] | Dmax [2] [%] | DC50 [2] [nM] | Compound |
| --- | --- | --- | --- | --- |
| 7.4 | 94 | 94 | 1.2 | CC(C)(O)c1cc2nn(C34CC(N5CCN(CC6CCN(c7ccc8c(c7)CN(C7CCC(=O)NC7=O)C8=O)CC6)CC5)(C3)C4)cc2cc1NC(=O)c1ccc2cc(C#N)cnn12 (stereo not drawn) [Example 401, 3-cyano-N-(2-(3-(4-((1-(2-(2,6-dioxopiperidin-3-yl)-1-oxoisoindolin-5-yl)piperidin-4-yl)methyl)piperazin-1-yl)bicyclo[1.1.1]pentan-1-yl)-6-(2-hydroxypropan-2-yl)-2H-indazol-5-yl)pyrrolo[1,2-b]pyridazine-7-carboxamide] |
| 5.5 | 87 | 95 | 0.9 | COC[C@H]1CN([C@H]2CC[C@H](n3cc4cc(NC(=O)c5ccc6cc(C#N)cnn56)c(C(C)(C)O)cc4n3)CC2)CCN1CC1CCN(c2ccc3c(c2)CN(C2CCC(=O)NC2=O)C3=O)CC1 (stereo partly drawn) [Example 402, 3-cyano-N-(2-((1R,4r)-4-((3R)-4-((1-(2-(2,6-dioxopiperidin-3-yl)-1-oxoisoindolin-5-yl)piperidin-4-yl)methyl)-3-(methoxymethyl)piperazin-1-yl)cyclohexyl)-6-(2-hydroxypropan-2-yl)-2H-indazol-5-yl)pyrrolo[1,2-b]pyridazine-7-carboxamide] |
| 5.4 | 94 | 93 | 0.8 | CC(C)(O)c1cc2nn([C@H]3CC[C@H](N4CCN(C5CN(c6cc(F)c([C@H]7CCC(=O)NC7=O)c(F)c6)C5)CC4)CC3)cc2cc1NC(=O)c1coc2cccnc12 [Example 404, N-(2-((1R,4r)-4-(4-(1-(4-((R)-2,6-dioxopiperidin-3-yl)-3,5-difluorophenyl)azetidin-3-yl)piperazin-1-yl)cyclohexyl)-6-(2-hydroxypropan-2-yl)-2H-indazol-5-yl)furo[3,2-b]pyridine-3-carboxamide] |
| 3.5 | 99 | 96 | 0.7 | CC(C)(O)c1cc2nn([C@H]3CC[C@H](N4CCN(CC5CN(c6cc(F)c([C@H]7CCC(=O)NC7=O)c(F)c6)C5)CC4)CC3)cc2cc1NC(=O)c1coc2cccnc12 [Example 403, N-(2-((1r,4r)-4-(4-((1-(4-((R)-2,6-dioxopiperidin-3-yl)-3,5-difluorophenyl)azetidin-3-yl)methyl)piperazin-1-yl)cyclohexyl)-6-(2-hydroxypropan-2-yl)-2H-indazol-5-yl)furo[3,2-b]pyridine-3-carboxamide] |
